One data set deals with T1, OATP1B1*1b (Homo sapiens, UniProt Q9Y6L6, N130D).
T1 construct: expressed in transfected cells
T1 sequence (Q9Y6L6 1-691 N130D): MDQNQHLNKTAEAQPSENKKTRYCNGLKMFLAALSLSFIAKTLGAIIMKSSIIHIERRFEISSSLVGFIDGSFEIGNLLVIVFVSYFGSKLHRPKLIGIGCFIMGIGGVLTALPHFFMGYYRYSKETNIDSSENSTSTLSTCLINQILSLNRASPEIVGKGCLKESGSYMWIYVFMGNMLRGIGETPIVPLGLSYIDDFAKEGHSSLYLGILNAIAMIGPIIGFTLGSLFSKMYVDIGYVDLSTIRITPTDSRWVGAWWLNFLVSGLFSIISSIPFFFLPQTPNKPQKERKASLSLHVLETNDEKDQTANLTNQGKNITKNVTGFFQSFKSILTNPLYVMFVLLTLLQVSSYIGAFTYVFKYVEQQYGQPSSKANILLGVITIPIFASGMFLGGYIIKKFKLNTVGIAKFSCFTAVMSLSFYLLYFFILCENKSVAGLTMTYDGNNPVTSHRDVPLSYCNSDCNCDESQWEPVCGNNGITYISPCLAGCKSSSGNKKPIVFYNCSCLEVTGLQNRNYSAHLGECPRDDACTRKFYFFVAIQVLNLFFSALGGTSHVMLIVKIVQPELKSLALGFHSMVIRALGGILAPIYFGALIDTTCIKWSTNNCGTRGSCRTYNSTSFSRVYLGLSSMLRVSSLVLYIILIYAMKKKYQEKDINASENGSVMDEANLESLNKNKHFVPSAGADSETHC
Put plainly: Remdesivir uptake into HEK cells stably expressing OATP1B1*1b vs vector control. It is filed as in vitro ADME. The following applies: 10 min. From the text: (§1) Generation, cultivation and characterization of human embryonic kidney (HEK) cells stably expressing OATP1B1 refseq (=OATP1B1*1a), OATP1B1*1b, OATP1B1*5 and OATP1B1*15 [18], OATP1B3 [19], OATP2B1 [13] and OCT1 [20] have been described previously. OATP1B1 cells were cultivated in minimal essential medium (Life Technologies, Paisley, UK) and OATP1B3, OATP2B1 and OCT1 cells were cultivated in Dulbecco’s modified Eagle medium (Sigma, Darmstadt, Germany). Cultivation media were supplemented with 10% fetal calf serum, 100 U/mL penicillin and 100 µg/mL streptomycin. Cells were grown at 37 °C and 5% CO2. Functionality of the cells was confirmed by measuring uptake of prototypic substrates (see Section 2.3 and supplementary material).
Uptake assays were conducted at 37 °C according to previously described methods. For this, cells were seeded in 24-well plates (320,000 cells/well) and cultured for 2 days. Cells were then incubated for a further 24 h in culture medium with 5 mM butyrate (OATP1B3, OATP2B1, OCT1) or 10 mM butyrate (OATP1B1) to increase protein levels of recombinant transporters. […]
Remdesivir was determined by UHPLC-MS-MS analysis on an Agilent 1290 infinity UHPLC system coupled to an Agilent 6495B triple quadrupole mass spectrometer (Agilent, Waldbronn, Germany) similar to a recently published method. […]

Another data set has as its target T2, OCT1 (Homo sapiens, UniProt O15245).
T2 construct: expressed in transfected cells
T2 sequence (O15245 1-554): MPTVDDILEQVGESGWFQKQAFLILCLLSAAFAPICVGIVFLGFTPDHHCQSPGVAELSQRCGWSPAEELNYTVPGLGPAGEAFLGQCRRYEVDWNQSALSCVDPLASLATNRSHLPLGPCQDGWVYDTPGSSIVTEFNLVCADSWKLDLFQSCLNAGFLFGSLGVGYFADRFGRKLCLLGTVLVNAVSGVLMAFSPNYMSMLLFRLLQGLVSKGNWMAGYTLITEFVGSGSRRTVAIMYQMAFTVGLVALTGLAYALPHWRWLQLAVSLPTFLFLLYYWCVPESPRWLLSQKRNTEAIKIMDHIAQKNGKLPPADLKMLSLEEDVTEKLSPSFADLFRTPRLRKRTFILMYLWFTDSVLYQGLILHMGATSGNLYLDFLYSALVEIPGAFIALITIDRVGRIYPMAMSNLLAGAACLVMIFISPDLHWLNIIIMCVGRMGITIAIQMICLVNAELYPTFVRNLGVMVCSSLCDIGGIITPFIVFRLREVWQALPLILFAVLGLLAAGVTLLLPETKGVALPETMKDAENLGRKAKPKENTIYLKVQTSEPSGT
Put plainly: Inhibition of OCT1-mediated metformin uptake. The class given is cell-based.
Source text: as §1
Prototypic substrate uptake was performed as described previously. For this, uptake solutions contained the respective substrate with tracer amounts of radiolabeled substrate. In case of inhibition studies, uptake solutions additionally contained different concentrations of remdesivir. […] Cells were then lysed with 0.2% sodium dodecyl sulfate and intracellular radioactivity was measured by liquid scintillation counting (Tricarb2800, PerkinElmer Life Sciences GmbH, Rodgau, Germany or Hidex 300SL TDCR liquid scintillation counter, Turku, Finland). […]

With `CCC(CC)COC(=O)[C@H](C)N[P@](=O)(OC[C@H]1O[C@@](C#N)(c2ccc3c(N)ncnn23)[C@H](O)[C@@H]1O)Oc1ccccc1` [Remdesivir], the “Accumulation vs vector-transfected control cells” value on OATP1B1*1b (5 µM remdesivir) and on OATP1B1*1b (50 µM remdesivir) was “moderately higher” in each case. For the same compound, at OCT1 (5 µM metformin, 5 min uptake, different remdesivir concentrations), the “Effect on prototypic substrate uptake” value was “significant concentration-dependent inhibitory effect”. For the same compound, the “Transporter inhibition at 10 µM” value at OCT1 (10 µM remdesivir, metformin as substrate) is “inhibition”.

The values are drawn from paper PMC7999182, “Interaction of Remdesivir with Clinically Relevant Hepatic Drug Uptake Transporters” (Pharmaceutics, 2021).
